In publication PMC6683035, “Extra Virgin Olive Oil Contains a Phenolic Inhibitor of the Histone Demethylase LSD1/KDM1A” (Nutrients, 2019):
pIC50: −log10 of the molar value.

Molecular target: T1, LSD1 (lysine-specific histone demethylase 1A, KDM1A) (Homo sapiens, UniProt O60341)
T1 construct: recombinant human LSD1 (BPS#50103)
Test: AlphaScreen demethylase assay with biotinylated histone H3 peptide substrate and purified recombinant LSD1
Type: biochemical

C/C=C(/C=O)[C@@H](CC=O)CC(=O)OCCc1ccc(O)c(O)c1 [oleacein] showed a pIC50 of roughly 5.60.
